Measurements as given in patent publication US20120288495A1, “THERAPEUTIC COMPOSITIONS AND METHODS” (BIOTHERA, INC., priority 2009, published 2012).

Experiments:
[1] = system: HCT-116 colorectal carcinoma; experiment: LIVE/DEAD cell mediated cytotoxicity assay: PBMC killing of KRAS-mutated tumor cells; type: cell-based, human
Method: The tumor target line HCT-116 colorectal carcinoma (American Type Culture Collection, Manassas, Va., ATCC No. CCL-247) was maintained in McCoy's 5A media supplemented with 10% fetal calf serum (Hyclone Laboratories, Inc., Logan, Utah).
Cytotoxicity was measured with the LIVE/DEAD Cell Mediated Cytotoxicity Kit (Invitrogen, Carlsbad, Calif.) according to manufacturer's instructions. Briefly, the HCT-116 target cells were stained with 1:80 dilution of DiOC18 in Phosphate Buffered Saline (PBS, Mediatech Inc. Manassas, Va.) and incubated at 37° C. for 30 minutes. The cells were then washed twice in PBS and resuspended at 2×10^6 cells/mL in complete media containing 10% human serum.
DiOC labeled target cells incubated with ERBITUX dilutions for 30 minutes at 37° C. In each well of a 96-well plate, 1.25×10^6 freshly isolated peripheral blood mononuclear cells (PBMC) along with IMPRIME-PGG dilution or 50 ng/ml IL-2 (R&D Systems, Minneapolis, Minn.) in of total volume of 100 μl media incubated at 37° C. for 30 minutes. 5×10^4 targets added to wells in 25 μl of media and assay incubated overnight at 37° C. Following incubation, target cell viability measured by staining with 125 μl of propidium iodide (PI) viability reagent diluted 1:5000 from stock solution provided in the assay kit. Cells incubated for 30 minutes at 37° C. before analysis on LSR II flow cytometer (BD Biosciences, San Jose, Calif.) to determine percentage of DiOC stained targets that intercalate the PI stain, indicating cell death.

[2] = Physicochemical properties of purified soluble β-glucan
Source text: The soluble β-glucan has an average molecular weight between about 120,000 Da and about 205,000 Da and a molecular weight distribution (polydispersity) of not more than 2.5 as determined by HR-GPC with multiple angle light scattering (HR-GPC/MALS) and differential refractive index detection. Powder X-ray diffraction and magic-angle spinning NMR determined that the product consists of polymeric chains associated into triple helices. The soluble β-glucan is typically uncharged and therefore has no pKa.

[3] = system: neutrophils and monocytes; conditions: cited from earlier work
[4] = system: IL-1, TNF, and leukotrienes; conditions: cited from earlier work

pKa [2]: has no pKa
solubility in water [2]: soluble in water independent of pH
Substance: poly-(1-6)-β-D-glucopyranosyl-(1-3)-β-D-glucopyranose [soluble β-glucan]
ability of human PBMCs to kill KRAS-mutated tumor cells ([1]; FIG. 2, flow cytometry data, in vitro): enhances the ability of human peripheral blood mononuclear cells (PBMCs) to kill KRAS-mutated tumor cells in vitro
ability of human PBMCs to kill KRAS-mutated tumor cells ([1]; FIG. 3, in vitro, N=1, E:T=25:1): enhances the ability of human peripheral blood mononuclear cells (PBMCs) to kill KRAS-mutated tumor cells in vitro
antitumor activity in the presence of an EGF-r antagonist antibody ([1]; FIG. 4, with ERBITUX, N=1, E:T=25:1): exhibits greater antitumor activity in the presence of an EGF-r antagonist antibody
number of neutrophils and monocytes and their direct antitumor activity (phagocytosis and microbial killing) [3]: increase the number of neutrophils and monocytes as well as their direct antitumor activity
production of biochemical mediators (IL-1, TNF, leukotrienes) [4]: does not stimulate the production of biochemical mediators
